Test results taken from BindingDB's records for doi:10.1124/mol.63.5.1082 (Johnson and Johnson Pharmaceutical Research and …, 2003).
“And” between values parts separate entries of the source, which are not always exact repeats. Equal entries are not always repeated.

Each compound was assayed against Metabotropic glutamate receptor 1 (Rattus norvegicus, UniProt P23385).
Sequence of Metabotropic glutamate receptor 1 (P23385 whole entry): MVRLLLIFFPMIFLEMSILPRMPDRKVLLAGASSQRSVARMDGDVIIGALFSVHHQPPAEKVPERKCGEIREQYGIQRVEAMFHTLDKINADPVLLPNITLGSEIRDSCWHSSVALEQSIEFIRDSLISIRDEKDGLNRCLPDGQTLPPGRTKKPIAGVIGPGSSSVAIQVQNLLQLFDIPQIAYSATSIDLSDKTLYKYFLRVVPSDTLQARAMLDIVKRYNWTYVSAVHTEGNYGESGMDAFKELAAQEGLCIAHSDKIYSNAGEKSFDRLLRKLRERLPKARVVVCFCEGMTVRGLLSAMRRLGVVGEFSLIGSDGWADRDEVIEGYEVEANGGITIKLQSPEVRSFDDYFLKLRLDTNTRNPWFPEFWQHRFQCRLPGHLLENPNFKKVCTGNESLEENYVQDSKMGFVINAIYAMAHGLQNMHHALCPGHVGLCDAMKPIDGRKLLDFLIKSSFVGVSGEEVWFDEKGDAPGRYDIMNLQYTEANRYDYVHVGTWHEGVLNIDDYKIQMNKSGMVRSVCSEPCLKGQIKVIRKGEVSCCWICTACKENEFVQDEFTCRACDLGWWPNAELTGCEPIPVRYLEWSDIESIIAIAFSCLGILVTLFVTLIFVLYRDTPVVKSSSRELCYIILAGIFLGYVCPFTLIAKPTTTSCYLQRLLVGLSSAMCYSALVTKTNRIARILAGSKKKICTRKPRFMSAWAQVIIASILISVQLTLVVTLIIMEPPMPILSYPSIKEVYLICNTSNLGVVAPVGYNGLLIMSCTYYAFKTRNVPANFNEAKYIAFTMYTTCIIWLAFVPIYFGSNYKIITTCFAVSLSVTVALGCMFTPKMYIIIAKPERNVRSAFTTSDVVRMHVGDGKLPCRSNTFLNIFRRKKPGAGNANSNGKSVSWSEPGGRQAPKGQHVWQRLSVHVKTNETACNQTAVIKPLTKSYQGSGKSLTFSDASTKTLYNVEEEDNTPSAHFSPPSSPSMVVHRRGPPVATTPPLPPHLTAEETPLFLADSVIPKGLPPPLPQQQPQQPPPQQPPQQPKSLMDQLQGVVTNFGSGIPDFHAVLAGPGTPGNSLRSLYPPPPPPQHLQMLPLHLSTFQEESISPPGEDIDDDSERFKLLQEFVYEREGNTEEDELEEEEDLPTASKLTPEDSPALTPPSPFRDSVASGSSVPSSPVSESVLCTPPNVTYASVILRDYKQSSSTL

Ki	SMILES
1 µM	O=C(Cc1ccccc1)c1ccc2nc3c(cc2c1)CCCO3
1 µM and 4.9 µM	CCOC(=O)C12CC1C(N=O)c1ccccc1O2 (stereo not drawn) [CAS_5126051]
> 10 µM	N[C@H](C(=O)O)c1cc(O)cc(O)c1 [amino(3,5-dihydroxyphenyl)acetic acid]
